Results as given in US20260256799A1, “INHIBITORS FOR TREATING SOLID TUMOURS” (UNIVERSITY OF SOUTHAMPTON, priority 2023, published 2026).

Tested on: TC-1 cells + TGF-β1-treated murine lung fibroblasts (myoMLF)
Assay: Isograft model TC-1 + myoMLF (myoCAF-high tumours)
Format: in vivo, C57/BL6 female mice
Method: SMA immunohistochemistry (IHC; Sigma Aldrich; A2547) on FFPE tissues was performed as previously: in brief, tissues were fixed in 4% paraformaldehyde and embedded in paraffin. 4 μm sections were de-paraffinized, rehydrated and antigen retrieved for 20 minutes at 97° C. using a predefined program on the Dako PT links. Antigen retrieval was performed using Envision FLEX High pH. Endogenous peroxidase activity was blocked using 3% hydrogen peroxide. Mouse Ig blocking reagent (M.O.M kit vector labs) was applied for 1 hour. Primary antibody incubation (1:100) in M.O.M diluent (vector labs) was for 20 minutes. For secondary amplification, M.O.M. Biotinylated anti-Mouse IgG reagentwas applied for 10 minutes followed by Vectorstain elite ABC reagent (vector labs). Chromogenic visualization was completed with 2×5 minute washes in DAB and counterstaining with Haematoxylin. For IHC of CD8 (in house; YTS169), CD4 (BD; RM4-5) and F480 (AbD Serotec; CI:A3-1) tissues were frozen in OCT. 8 μm sections were fixed in 100% acetone for 10 minutes. Endogenous peroxidase activity was blocked using neat peroxidase suppressor (Peirce) for 15 minutes. Sections were blocked for 30 minutes with 2.5% goat serum. Primary antibodies were applied for 2 hours −CD8 (1:800), CD4 (1:100), F480 (1:100). Appropriate species HRP polymer (ImmunoPress, Vector Laboratories) was applied to sections for 30 minutes. Vector NovaRED chromagen substrate (Vector Laboratories) was applied for 2-10 minutes then counterstained with haematoxylin (Vector Laboratories) for 30 seconds. Images were captured using an Olympus CKX41 microscope with Cell B imaging software. % area of staining was calculated using Fiji software (java) by running the ‘color deconvolution’ tool analyzing H DAB. The image was appropriately thresholded based on the ‘color 2’ image. The same thresholding was applied to all images from the same experiment. Regions of interest (margin & core) were confirmed by a pathologist, and each point plotted represents the mean of a minimum of 4 independent fields of view (field diameter=2 mm) from margin and core (one section per mouse). The mean was calculated from 2 or 3 mice/experimental group.
Quantification of SMA staining in mouse tumours was carried out using color thresholding and deconvolution in Fiji. At least three independent fields of view (FoV) of at least three tumours were randomly selected by a consultant pathologist (GJT) to generate a mean value per tumour representing the SMA-positive area %, which was compared between treatment groups.
CD8 and CD4 IHC was performed on frozen tissue embedded in OCT using [YTS169 (CD8; in house) and RM4-5 (CD4; BD) (FIG. 6c & FIG. 12e). 8 μm sections were fixed in 100% acetone for 10 minutes and stained as previously shown. CD8 and CD4 IHC on FFPE was performed using 98941S and 25229S respectively (Cell Signaling; FIG. 6a,g,k,o and FIG. 12a-c,g & 13m,o) using the Leica Bond system according to the manufacturer's instructions (Protocol F mouse 4; HIER 20 MINUTES ER1; Temperature-Ambient; 1:100 dilution; 20 min of NGS blocking incubation). CD8 and CD4 T-cells were counted from ten randomly selected fields of view (FoV) from the tumour by a consultant pathologist (GJT).
All mouse experiments were performed according to national and international guidelines and were approved by the authors' institutional review board and the UK Home Office. Xenograft model: 6.7×10^5 PT cells±2×10^6 HFFF2 cells were resuspended in 100 μl PBS and injected s.c. in the flank of partially immunocompromised, male RAG1−/−C57BL/6 mice (3-5 months old). Isograft models: 0.5×10^5 TC-1 cells±3×10^5 TGF-β1-treated murine lung fibroblasts (myoMLFs) or 1×10^5 MC38 cells±5×10^5 TGF-β1-treated murine colon fibroblasts (myoMCFs) were resuspended in 100 μl PBS and injected s.c. in the flank of C57/BL6 female mice (6-8 weeks old). 5-8 animals for both models were used per group. […]

[1] = AZD0156 20 mg/Kg oral gavage daily
[2] = AZD0156, myoCAF-high TC-1 tumours

CN(C)CCCOc1ccc(-c2ccc3ncc4c(c3c2)n(C2CCOCC2)c(=O)n4C)cn1 [AZD0156]
myofibroblast accumulation (SMA IHC) [1]: suppressed | tumour growth [1]: slowed | CD4 T-cell infiltration (IHC) [2]: unaffected | location of CD8 T-cells, tumour periphery to tumour core (IHC) [2]: significant relocation | CD8 T-cell phenotype/function (flow cytometry) (AZD0156, myoCAF-high tumours): did not affect | overall survival (AZD0156 daily at day 15-28): improved | intratumoural myoCAF accumulation (AZD0156 monotherapy in the RAH vaccine experiment): effective in reducing
